Test results as given in patent EP3002287B1, “Thiochromeno[2,3-c]quinolin-12-one derivatives and their use as topoisomerase inhibitors” (National Defense Medical Center, priority 2014, dated 2016).

What was measured:
Assay in all cases: NCI in vitro 60-cell drug screen (SRB assay)
Format in all cases: cell-based
CCRF-CEM = CCRF-CEM (Leukemia); 10^-5 molar concentration; 48 hours
MOLT-4 = MOLT-4 (Leukemia); 10^-5 molar concentration; 48 hours
RPMI-8226 = RPMI-8226 (Leukemia); 10^-5 molar concentration; 48 hours
HOP-92 = HOP-92 (Non-small cell lung cancer); 10^-5 molar concentration; 48 hours
NCI-H23 = NCI-H23 (Non-small cell lung cancer); 10^-5 molar concentration; 48 hours
NCI-H322M = NCI-H322M (Non-small cell lung cancer); 10^-5 molar concentration; 48 hours
NCI-H522 = NCI-H522 (Non-small cell lung cancer); 10^-5 molar concentration; 48 hours
COLO 205 = COLO 205 (Colon cancer); 10^-5 molar concentration; 48 hours
HCC-2998 = HCC-2998 (Colon cancer); 10^-5 molar concentration; 48 hours
HCT-116 = HCT-116 (Colon cancer); 10^-5 molar concentration; 48 hours
HCT-15 = HCT-15 (Colon cancer); 10^-5 molar concentration; 48 hours
HT29 = HT29 (Colon cancer); 10^-5 molar concentration; 48 hours
SW-620 = SW-620 (Colon cancer); 10^-5 molar concentration; 48 hours
SF-268 = SF-268 (CNS cancer); 10^-5 molar concentration; 48 hours
SF-295 = SF-295 (CNS cancer); 10^-5 molar concentration; 48 hours
SNB-19 = SNB-19 (CNS cancer); 10^-5 molar concentration; 48 hours
SNB-75 = SNB-75 (CNS cancer); 10^-5 molar concentration; 48 hours
U251 = U251 (CNS cancer); 10^-5 molar concentration; 48 hours
LOX IMVI = LOX IMVI (Melanoma); 10^-5 molar concentration; 48 hours
MALME-3M = MALME-3M (Melanoma); 10^-5 molar concentration; 48 hours
M14 = M14 (Melanoma); 10^-5 molar concentration; 48 hours
MDA-MB-435 = MDA-MB-435 (Melanoma); 10^-5 molar concentration; 48 hours
SK-MEL-28 = SK-MEL-28 (Melanoma); 10^-5 molar concentration; 48 hours
SK-MEL-5 = SK-MEL-5 (Melanoma); 10^-5 molar concentration; 48 hours
UACC-257 = UACC-257 (Melanoma); 10^-5 molar concentration; 48 hours
UACC-62 = UACC-62 (Melanoma); 10^-5 molar concentration; 48 hours
IGROV1 = IGROV1 (Ovarian cancer); 10^-5 molar concentration; 48 hours
OVCAR-3 = OVCAR-3 (Ovarian cancer); 10^-5 molar concentration; 48 hours
OVCAR-5 = OVCAR-5 (Ovarian cancer); 10^-5 molar concentration; 48 hours
OVCAR-8 = OVCAR-8 (Ovarian cancer); 10^-5 molar concentration; 48 hours
786-0 = 786-0 (Renal cancer); 10^-5 molar concentration; 48 hours
CAKI-1 = CAKI-1 (Renal cancer); 10^-5 molar concentration; 48 hours
SN12C = SN12C (Renal cancer); 10^-5 molar concentration; 48 hours
DU-145 = DU-145 (Prostate cancer); 10^-5 molar concentration; 48 hours
MDA-MB-231/ATCC = MDA-MB-231/ATCC (Breast cancer); 10^-5 molar concentration; 48 hours
T-47D = T-47D (Breast cancer); 10^-5 molar concentration; 48 hours
MDA-MB-486 = MDA-MB-486 (Breast cancer); 10^-5 molar concentration; 48 hours

Row | Compound | Growth percent (CCRF-CEM) | Growth percent (MOLT-4) | Growth percent (RPMI-8226) | Growth percent (HOP-92) | Growth percent (NCI-H23) | Growth percent (NCI-H322M) | Growth percent (NCI-H522) | Growth percent (COLO 205) | Growth percent (HCC-2998) | Growth percent (HCT-116) | Growth percent (HCT-15) | Growth percent (HT29) | Growth percent (SW-620) | Growth percent (SF-268) | Growth percent (SF-295) | Growth percent (SNB-19) | Growth percent (SNB-75) | Growth percent (U251) | Growth percent (LOX IMVI) | Growth percent (MALME-3M) | further results
1 | O=c1c2cc(Cl)ccc2sc2c(N3CCN(CCO)CC3)nc3ccccc3c12 [Compound 10, 10-Chloro-6-(4-(2-hydroxyethyl)piperazin-1-yl)-12H-thiochrom eno[2,3-c]quinolin-12one] | 83.46% | 70.01% | 84.87% | 39.64% | 84.75% | 82.85% | 94.76% | 88.90% | 103.49% | 69.33% | 82.92% | 63.19% | 88.11% | 87.80% | 100.32% | 84.81% | 77.64% | 83.31% | 87.79% | 119.20% | Growth percent (M14): 101.70%; Growth percent (MDA-MB-435): 98.24%; Growth percent (SK-MEL-28): 100.66%; Growth percent (SK-MEL-5): 94.13%; Growth percent (UACC-257): 102.79%; Growth percent (UACC-62): 91.36%; Growth percent (IGROV1): 71.67%; Growth percent (OVCAR-3): 93.92%; Growth percent (OVCAR-5): 95.70%; Growth percent (OVCAR-8): 84.95%; Growth percent (786-0): 85.58%; Growth percent (CAKI-1): 87.87%; Growth percent (SN12C): 86.81%; Growth percent (DU-145): 96.26%; Growth percent (MDA-MB-231/ATCC): 55.49%; Growth percent (T-47D): 87.22%; Growth percent (MDA-MB-486): 81.67%
2 | O=c1c2cc(Cl)ccc2sc2c(N3CCN(c4ccccc4)CC3)nc3ccccc3c12 [Compound 12, 10-Chloro-6-(4-phenylpiperazin-1-yl)-12H-thiochromeno[2,3-c] quinolin-12-one] | 98.41% | 107.23% | 99.93% | 81.27% | 93.80% | 84.41% | 93.50% | 111.67% | 105.23% | 105.36% | 99.81% | 99.94% | 100.20% | 103.82% | 99.23% | 105.57% | 94.73% | 96.09% | 95.15% | 121.84% | Growth percent (M14): 104.02%; Growth percent (MDA-MB-435): 102.39%; Growth percent (SK-MEL-28): 104.22%; Growth percent (SK-MEL-5): 103.57%; Growth percent (UACC-257): 93.68%; Growth percent (UACC-62): 104.48%; Growth percent (IGROV1): 91.38%; Growth percent (OVCAR-3): 109.63%; Growth percent (OVCAR-5): 108.10%; Growth percent (OVCAR-8): 90.34%; Growth percent (786-0): 101.58%; Growth percent (CAKI-1): 97.83%; Growth percent (SN12C): 102.66%; Growth percent (DU-145): 111.15%; Growth percent (MDA-MB-231/ATCC): 94.34%; Growth percent (T-47D): 104.57%; Growth percent (MDA-MB-486): 86.34%
